Test results reported in patent publication US6072057A, “1H-4(5)-cyclo-substituted imidazole derivatives as histamine H3 receptor agents” (Gliatech Inc., priority 1998, dated 2000).
Read-outs that look alike come from different tables or passages of the source.

Experiments:
H3 receptor [1] = conditions: cited from earlier work
[2] = intraventricular, rabbits; cited from earlier work
[3] = intraventricular, saline and pentobarbital-treated rats; cited from earlier work
Histamine H3 receptor = target: T1, Histamine H3 receptor (Rattus norvegicus, UniProt Q9QYN8); assay: In Vitro Histamine H3 Receptor Binding Analysis ([3H]-Nα-methylhistamine, rat cortical membranes); conditions: pH 7.4, 25° C., 40 minutes
T1 construct: Rat cortices were mechanically homogenized; from tissue; host or cells: rat cerebral cortex membranes
T1 sequence (Q9QYN8 whole entry): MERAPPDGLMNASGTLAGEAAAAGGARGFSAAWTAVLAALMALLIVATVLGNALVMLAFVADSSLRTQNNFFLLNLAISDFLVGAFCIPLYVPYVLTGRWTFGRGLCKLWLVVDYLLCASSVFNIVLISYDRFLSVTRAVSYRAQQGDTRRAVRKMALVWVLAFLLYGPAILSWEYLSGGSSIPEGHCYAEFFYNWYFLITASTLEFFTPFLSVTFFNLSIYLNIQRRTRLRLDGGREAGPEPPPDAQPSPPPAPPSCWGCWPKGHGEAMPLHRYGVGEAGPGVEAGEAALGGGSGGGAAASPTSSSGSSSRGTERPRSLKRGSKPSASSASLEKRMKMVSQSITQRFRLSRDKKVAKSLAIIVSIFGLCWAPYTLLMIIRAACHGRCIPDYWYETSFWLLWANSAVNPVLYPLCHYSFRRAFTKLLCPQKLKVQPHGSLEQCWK
Protocol: Histamine H3 receptor affinity was determined in rat cortical membranes using the H3 selective agonist ligand, [^3 H]-N^α -methylhistamine (78.9 Ci/mmole, DuPont NEN Research Products, Boston, Mass.) according to the method of West et al., (1990) Mol. Pharmacol. 38: 610-613 with modifications. Briefly, animals were sacrificed by decapitation and the cerebral cortex was rapidly removed. Rat cortices were mechanically homogenized with an Omni 1000 motor driven homogenizer in 10 volumes (wt/vol) of Krebs-Ringers Hepes buffer (pH 7.4) containing the following protease inhibitors; EDTA (10 mM), PMSF (0.1 mM), chymostatin (0.2 mg/50 mL) and leupeptin (0.2 mg/50 mL). The homogenate was centrifuged in a Sorvall at ~40,000× g for 30 min. […] Protein concentrations were determined by Coomassie Plus Protein Assay (Pierce, Rockford, Ill.).
The binding assay was carried out in polypropylene tubes in a total volume of 0.4 ml of 50 mM Na^+ Phosphate buffer (pH 7.4), containing 150-200 μg of tissue protein, 0.8-1.2 nM [^3 H]-N^α -methylhistamine and 0.3 to 10,000 nM GT-2016. […] Filters were transferred to polyethylene minivials and counted in 3.5 ml of scintillation fluid (Ecolume, ICN Biomedicals, Inc.). […] Saturation and competition experiments were analyzed with the ReceptorFit saturation and competition curve fittingprograms (Lundon Software, Inc., Cleveland, OH).

H3 receptor [4] = conditions: cat (Lin et al., 1990); cited from earlier work
[5] = test system: synthesis and release of histamine; conditions: in vivo studies; cited from earlier work
H3 receptor [6] = conditions: rats; cited from earlier work
H3 histamine receptor = conditions: tested as a racemic mixture; cited from earlier work

## NCCc1c[nH]cn1 [histamine]
H3 receptor [1]
  stimulation of the H3 autoreceptor: capable of stimulating this autoreceptor
[2]
  arousal EEG pattern: induces the appearances of an arousal EEG pattern
[3]
  spontaneous locomotor activity, grooming and exploratory behavior: increased

## NC1CCC(c2c[nH]cn2)CC1 (stereo not drawn)
Histamine H3 receptor
  Ki: 20 nM

## S=C(NC1CCCCC1)N1CCC(c2cnc[nH]2)CC1 [thioperamide]
H3 receptor [4]
  wakefulness: enhanced wakefulness in a dose-dependent fashion
[5]
  synthesis and release of histamine: can increase
H3 receptor [6]
  slow wave and REM sleep: decrease slow wave and REM sleep
  wakefulness: increase wakefulness

## NC1CC1c1c[nH]cn1 (racemic) [2-(4-imidazoyl)-cyclopropylamine]
H3 histamine receptor
  H3 histamine receptor agonist activity: moderate
